As usually defined, the IC50 is the concentration at which inhibition is half-maximal.

These results are taken from patent publication US11752156B2, “Compositions and methods for treating hyperproliferative skin disorders” (Athenex HK Innovative Limited, priority 2018, dated 2023).

Test [1] relates to A431 cells (epidermoid cells obtained from a human squamous cell carcinoma). Put plainly: inhibition of cell growth by tazarotene, A431. The test is classed as cell-based. From the text:
FIG. 8: Inhibition of A431 cell growth by tazarotenee, as determined by staining.
(§1) Examples of suitable retinoids include retinol, retinal, retinoic acid isotretinoin, alitreninoin, etretinate, acitretin, adapalene, bexarotene, and/or tazarotene. FIGS. 7 and 8 show the effects of tazarotene on growth of cells in culture, including CCD-1106 KERTr keratinocytes (FIG. 7) and A431 cells (epidermoid cells obtained from a human squamous cell carcinoma, FIG. 8).

Test [2] deals with cell proliferation/growth. Description: combined treatment with KX01 and tazarotene, inhibition of cell proliferation/growth. In kind it is cell-based.
Excerpt: as §1

In test [3] the test system is CCD-1106 KERTr keratinocytes. Description: inhibition of cell growth by tazarotene, keratinocytes. The test is classed as cell-based, human.
Excerpt: FIG. 7: Inhibition of CCD1106 KERTr keratinocyte growth by tazarotene, as determined by staining.
as §1

Take `CCOC(=O)c1ccc(C#Cc2ccc3c(c2)C(C)(C)CCS3)nc1` [Tazarotene, tazarotene]: the Maximum inhibition in test [1] (A431, model estimate) is 1.09; in test [3] (model estimate), 0.903. Besides, the H worked out at 1.66 in test [1] (A431, steepness of slope); 1.0 in test [2]; 2.11 in test [3] (steepness of slope). Also, the IC50 was 36.3 µM in test [1] (Homo sapiens, A-431, A431, model estimate); 13300 nM in test [2] (column head says nM); 12.4 µM in test [3] (Homo sapiens, CCD-1106, model estimate). For the same molecule, in test [2], the Imax turned out to be 1.1.
